In ChEMBL document CHEMBL1909046, “DrugMatrix in vitro pharmacology data”:

Target: Platelet-activating factor receptor (Homo sapiens, UniProt P25105); further: in other assays of this panel Not Active means under 50% inhibition at 10 µM
Test: biochemical
Format: tissue-based
Conditions: platelet

Platelet-activating factor receptor, sequence (P25105 whole entry): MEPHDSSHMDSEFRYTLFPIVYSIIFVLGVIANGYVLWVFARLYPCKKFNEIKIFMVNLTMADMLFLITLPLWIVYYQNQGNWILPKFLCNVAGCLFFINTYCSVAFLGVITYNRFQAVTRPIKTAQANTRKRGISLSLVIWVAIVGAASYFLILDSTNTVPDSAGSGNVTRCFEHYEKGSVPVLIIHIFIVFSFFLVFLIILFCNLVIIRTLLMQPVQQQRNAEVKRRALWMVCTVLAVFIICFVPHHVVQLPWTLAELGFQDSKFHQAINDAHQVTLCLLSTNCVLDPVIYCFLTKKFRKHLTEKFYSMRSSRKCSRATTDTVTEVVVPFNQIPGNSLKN

| Structure (SMILES) | IC50 |
| --- | --- |
| Cc1cc(NS(=O)(=O)c2ccc(N)cc2)no1 [SULFAMETHOXAZOLE] | Not Active |
| CN[C@@H]1[C@@H](O)[C@@H](O[C@@H]2[C@@H](O)[C@H](O[C@H]3OC(CN)=CC[C@H]3N)[C@@H](N)C[C@H]2N)OC[C@]1(C)O [SISOMICIN] | Not Active |
| O=C1c2c(O)ccc(O)c2C(=O)c2c(NCCNCCO)ccc(NCCNCCO)c21 [MITOXANTRONE] | Not Active |
| CSc1ccc2c(c1)N(CCC1CCCCN1C)c1ccccc1S2 (stereo not given) [THIORIDAZINE] | Not Active |
| CC(C)(C)NC(=O)[C@@H]1CN(Cc2cccnc2)CCN1C[C@@H](O)C[C@@H](Cc1ccccc1)C(=O)N[C@H]1c2ccccc2C[C@H]1O.O | Not Active |
| COc1cccc(C2(O)CCCCC2CN(C)C)c1 (stereo not given) [TRAMADOL] | Not Active |
| O=C(CCCN1CCC(O)(c2ccc(Cl)cc2)CC1)c1ccc(F)cc1 [HALOPERIDOL] | Not Active |

Target: T1, 3-hydroxy-3-methylglutaryl-coenzyme A reductase (Homo sapiens, UniProt P04035);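 further: enzyme inhibition assay of HMG-CoA reductase using radiolabeled [14C]HMG-CoA as substrate; in other assays of this panel Not Active means under 50% inhibition at 10 µM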
T1 sequence (P04035 whole entry): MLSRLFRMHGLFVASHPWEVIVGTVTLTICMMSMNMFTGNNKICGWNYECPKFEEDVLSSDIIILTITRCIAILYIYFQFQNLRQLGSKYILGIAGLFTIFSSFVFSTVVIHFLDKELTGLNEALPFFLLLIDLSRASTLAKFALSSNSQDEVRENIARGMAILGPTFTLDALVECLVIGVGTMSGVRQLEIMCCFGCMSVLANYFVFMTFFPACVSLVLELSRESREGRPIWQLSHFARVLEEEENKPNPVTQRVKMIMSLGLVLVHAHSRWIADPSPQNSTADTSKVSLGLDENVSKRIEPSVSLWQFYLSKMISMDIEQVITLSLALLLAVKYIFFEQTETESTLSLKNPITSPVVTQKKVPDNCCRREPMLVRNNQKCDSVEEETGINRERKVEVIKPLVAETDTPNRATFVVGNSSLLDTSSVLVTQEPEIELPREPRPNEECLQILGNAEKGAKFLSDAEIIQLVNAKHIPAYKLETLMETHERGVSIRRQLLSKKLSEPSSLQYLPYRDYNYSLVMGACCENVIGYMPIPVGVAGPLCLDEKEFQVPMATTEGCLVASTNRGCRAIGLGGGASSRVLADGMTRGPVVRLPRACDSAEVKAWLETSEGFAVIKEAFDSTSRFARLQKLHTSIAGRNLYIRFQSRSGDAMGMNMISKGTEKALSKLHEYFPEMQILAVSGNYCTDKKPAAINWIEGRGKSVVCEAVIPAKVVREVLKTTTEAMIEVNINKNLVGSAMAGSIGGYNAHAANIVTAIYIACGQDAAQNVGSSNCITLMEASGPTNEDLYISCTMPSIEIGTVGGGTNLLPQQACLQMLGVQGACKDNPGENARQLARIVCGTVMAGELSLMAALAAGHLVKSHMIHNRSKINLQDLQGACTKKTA
Test: not given
Design: species or system Escherichia coli
Conditions: not given

| Structure (SMILES) | IC50 |
| --- | --- |
| Cc1cc(NS(=O)(=O)c2ccc(N)cc2)no1 [SULFAMETHOXAZOLE] | Not Active |
| CN[C@@H]1[C@@H](O)[C@@H](O[C@@H]2[C@@H](O)[C@H](O[C@H]3OC(CN)=CC[C@H]3N)[C@@H](N)C[C@H]2N)OC[C@]1(C)O [SISOMICIN] | Not Active |
| O=C1c2c(O)ccc(O)c2C(=O)c2c(NCCNCCO)ccc(NCCNCCO)c21 [MITOXANTRONE] | Not Active |
| CSc1ccc2c(c1)N(CCC1CCCCN1C)c1ccccc1S2 (stereo not given) [THIORIDAZINE] | Not Active |
| CC(C)(C)NC(=O)[C@@H]1CN(Cc2cccnc2)CCN1C[C@@H](O)C[C@@H](Cc1ccccc1)C(=O)N[C@H]1c2ccccc2C[C@H]1O.O | Not Active |
| COc1cccc(C2(O)CCCCC2CN(C)C)c1 (stereo not given) [TRAMADOL] | Not Active |
| O=C(CCCN1CCC(O)(c2ccc(Cl)cc2)CC1)c1ccc(F)cc1 [HALOPERIDOL] | Not Active |

Target: T2, 5-hydroxytryptamine receptor 1A (Rattus norvegicus, UniProt P19327); further: in other assays of this panel Not Active means under 50% inhibition at 10 µM
T2 sequence (P19327 whole entry): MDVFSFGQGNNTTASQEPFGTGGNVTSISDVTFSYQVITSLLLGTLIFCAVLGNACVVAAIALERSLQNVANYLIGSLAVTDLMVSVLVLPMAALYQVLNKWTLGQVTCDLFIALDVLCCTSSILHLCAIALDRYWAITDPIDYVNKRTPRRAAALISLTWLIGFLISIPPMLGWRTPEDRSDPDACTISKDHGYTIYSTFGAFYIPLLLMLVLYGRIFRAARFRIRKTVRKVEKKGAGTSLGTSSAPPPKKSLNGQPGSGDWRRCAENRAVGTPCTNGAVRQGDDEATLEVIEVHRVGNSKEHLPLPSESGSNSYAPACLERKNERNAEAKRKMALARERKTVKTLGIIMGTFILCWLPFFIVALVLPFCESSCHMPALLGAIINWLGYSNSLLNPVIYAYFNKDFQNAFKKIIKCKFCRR
Test: not given
Format: cell membranes, CHO-K1, Membrane
Conditions: cho-k1

| Structure (SMILES) | IC50 |
| --- | --- |
| Cc1cc(NS(=O)(=O)c2ccc(N)cc2)no1 [SULFAMETHOXAZOLE] | Not Active |
| CN[C@@H]1[C@@H](O)[C@@H](O[C@@H]2[C@@H](O)[C@H](O[C@H]3OC(CN)=CC[C@H]3N)[C@@H](N)C[C@H]2N)OC[C@]1(C)O [SISOMICIN] | Not Active |
| O=C1c2c(O)ccc(O)c2C(=O)c2c(NCCNCCO)ccc(NCCNCCO)c21 [MITOXANTRONE] | Not Active |
| CC(C)(C)NC(=O)[C@@H]1CN(Cc2cccnc2)CCN1C[C@@H](O)C[C@@H](Cc1ccccc1)C(=O)N[C@H]1c2ccccc2C[C@H]1O.O | Not Active |
| COc1cccc(C2(O)CCCCC2CN(C)C)c1 (stereo not given) [TRAMADOL] | Not Active |
| O=C(CCCN1CCC(O)(c2ccc(Cl)cc2)CC1)c1ccc(F)cc1 [HALOPERIDOL] | Not Active |

Same assay, conditions: read-out: IC50

| Structure (SMILES) | IC50 [nM] |
| --- | --- |
| CSc1ccc2c(c1)N(CCC1CCCCN1C)c1ccccc1S2 (stereo not given) [THIORIDAZINE] | 60 |

Same assay, conditions: read-out: Ki

| Structure (SMILES) | Ki [nM] |
| --- | --- |
| CSc1ccc2c(c1)N(CCC1CCCCN1C)c1ccccc1S2 (stereo not given) [THIORIDAZINE] | 34 |

Test system: not listed separately
Test: DRUGMATRIX: Imidazoline I2, Central radioligand binding (ligand: [3H] Idazoxan)
Format: cell membranes, Rattus norvegicus, Wistar, Cerebral cortex, Membrane
Conditions: Not Active = under 50% inhibition at 10 µM

| Structure (SMILES) | IC50 | Ki |
| --- | --- | --- |
| Cc1cc(NS(=O)(=O)c2ccc(N)cc2)no1 [SULFAMETHOXAZOLE] | Not Active | Not Active |
| CN[C@@H]1[C@@H](O)[C@@H](O[C@@H]2[C@@H](O)[C@H](O[C@H]3OC(CN)=CC[C@H]3N)[C@@H](N)C[C@H]2N)OC[C@]1(C)O [SISOMICIN] | Not Active | Not Active |
| O=C1c2c(O)ccc(O)c2C(=O)c2c(NCCNCCO)ccc(NCCNCCO)c21 [MITOXANTRONE] | Not Active | Not Active |
| CC(C)(C)NC(=O)[C@@H]1CN(Cc2cccnc2)CCN1C[C@@H](O)C[C@@H](Cc1ccccc1)C(=O)N[C@H]1c2ccccc2C[C@H]1O.O | Not Active | Not Active |

Target: T3, Cytochrome P450 2A6 (Homo sapiens, UniProt P11509); further: in other assays of this panel Not Active means under 50% inhibition at 10 µM
T3 sequence (P11509 whole entry): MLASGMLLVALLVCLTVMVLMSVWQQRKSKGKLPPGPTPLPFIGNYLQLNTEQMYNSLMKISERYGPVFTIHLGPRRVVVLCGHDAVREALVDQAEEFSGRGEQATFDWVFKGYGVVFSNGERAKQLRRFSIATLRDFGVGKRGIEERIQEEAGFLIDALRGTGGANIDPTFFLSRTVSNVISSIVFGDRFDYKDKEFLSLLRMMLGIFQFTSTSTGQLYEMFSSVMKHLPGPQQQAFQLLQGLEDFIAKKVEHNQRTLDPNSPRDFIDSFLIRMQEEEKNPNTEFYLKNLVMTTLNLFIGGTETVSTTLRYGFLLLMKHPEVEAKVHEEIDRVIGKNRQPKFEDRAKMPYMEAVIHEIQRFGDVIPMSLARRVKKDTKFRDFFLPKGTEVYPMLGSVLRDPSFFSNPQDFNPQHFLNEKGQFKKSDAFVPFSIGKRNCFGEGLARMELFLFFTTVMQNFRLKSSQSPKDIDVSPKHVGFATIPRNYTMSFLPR
Test: not given
Conditions: bti-tn-5b1-4

| Structure (SMILES) | IC50 | Ki |
| --- | --- | --- |
| Cc1cc(NS(=O)(=O)c2ccc(N)cc2)no1 [SULFAMETHOXAZOLE] | Not Active | Not Active |
| CSc1ccc2c(c1)N(CCC1CCCCN1C)c1ccccc1S2 (stereo not given) [THIORIDAZINE] | Not Active | Not Active |
| CC(C)(C)NC(=O)[C@@H]1CN(Cc2cccnc2)CCN1C[C@@H](O)C[C@@H](Cc1ccccc1)C(=O)N[C@H]1c2ccccc2C[C@H]1O.O | Not Active | Not Active |
| COc1cccc(C2(O)CCCCC2CN(C)C)c1 (stereo not given) [TRAMADOL] | Not Active | Not Active |
| O=C(CCCN1CCC(O)(c2ccc(Cl)cc2)CC1)c1ccc(F)cc1 [HALOPERIDOL] | Not Active | Not Active |

Test system: not listed separately
Test: DRUGMATRIX: Purinergic P2X radioligand binding (ligand: [3H] alpha, beta-Methylene-ATP)
Format: cell membranes, Oryctolagus cuniculus, New Zealand albino, Urinary bladder, Membrane
Conditions: Not Active = under 50% inhibition at 10 µM

| Structure (SMILES) | IC50 | Ki |
| --- | --- | --- |
| Cc1cc(NS(=O)(=O)c2ccc(N)cc2)no1 [SULFAMETHOXAZOLE] | Not Active | Not Active |
| CN[C@@H]1[C@@H](O)[C@@H](O[C@@H]2[C@@H](O)[C@H](O[C@H]3OC(CN)=CC[C@H]3N)[C@@H](N)C[C@H]2N)OC[C@]1(C)O [SISOMICIN] | Not Active | Not Active |
| O=C1c2c(O)ccc(O)c2C(=O)c2c(NCCNCCO)ccc(NCCNCCO)c21 [MITOXANTRONE] | Not Active | Not Active |
| CC(C)(C)NC(=O)[C@@H]1CN(Cc2cccnc2)CCN1C[C@@H](O)C[C@@H](Cc1ccccc1)C(=O)N[C@H]1c2ccccc2C[C@H]1O.O | Not Active | Not Active |

Target: T4, Vasoactive intestinal polypeptide receptor 1 (Homo sapiens, UniProt P32241); further: in other assays of this panel Not Active means under 50% inhibition at 10 µM
T4 sequence (P32241 whole entry): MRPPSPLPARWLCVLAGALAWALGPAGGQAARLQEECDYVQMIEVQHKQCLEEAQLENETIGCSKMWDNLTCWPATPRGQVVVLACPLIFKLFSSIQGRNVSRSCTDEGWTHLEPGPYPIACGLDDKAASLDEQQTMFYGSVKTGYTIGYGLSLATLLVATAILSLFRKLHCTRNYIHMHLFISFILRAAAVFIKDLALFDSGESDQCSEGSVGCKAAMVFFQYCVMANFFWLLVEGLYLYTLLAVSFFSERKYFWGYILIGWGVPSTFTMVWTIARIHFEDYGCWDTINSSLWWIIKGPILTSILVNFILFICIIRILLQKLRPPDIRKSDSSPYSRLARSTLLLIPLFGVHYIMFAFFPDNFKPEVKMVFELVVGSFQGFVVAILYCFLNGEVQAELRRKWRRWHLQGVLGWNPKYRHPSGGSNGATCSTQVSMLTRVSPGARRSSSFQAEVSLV
Test: not given
Format: cell membranes, Membrane
Conditions: ht-29

| Structure (SMILES) | IC50 |
| --- | --- |
| Cc1cc(NS(=O)(=O)c2ccc(N)cc2)no1 [SULFAMETHOXAZOLE] | Not Active |
| CN[C@@H]1[C@@H](O)[C@@H](O[C@@H]2[C@@H](O)[C@H](O[C@H]3OC(CN)=CC[C@H]3N)[C@@H](N)C[C@H]2N)OC[C@]1(C)O [SISOMICIN] | Not Active |
| O=C1c2c(O)ccc(O)c2C(=O)c2c(NCCNCCO)ccc(NCCNCCO)c21 [MITOXANTRONE] | Not Active |
| CSc1ccc2c(c1)N(CCC1CCCCN1C)c1ccccc1S2 (stereo not given) [THIORIDAZINE] | Not Active |
| CC(C)(C)NC(=O)[C@@H]1CN(Cc2cccnc2)CCN1C[C@@H](O)C[C@@H](Cc1ccccc1)C(=O)N[C@H]1c2ccccc2C[C@H]1O.O | Not Active |
| COc1cccc(C2(O)CCCCC2CN(C)C)c1 (stereo not given) [TRAMADOL] | Not Active |
| O=C(CCCN1CCC(O)(c2ccc(Cl)cc2)CC1)c1ccc(F)cc1 [HALOPERIDOL] | Not Active |
